PMC6649263 (ACS Omega, 2019)

Columns and labels:
Format in all cases: biochemical
electric eel AChE = electric eel AChE (Electrophorus electricus, UniProt O42275); assay: Cholinesterase enzyme inhibition assay
horse serum BChE = horse serum BChE (Equus caballus, UniProt P81908); assay: Cholinesterase enzyme inhibition assay
hGSK-3β = hGSK-3β (Homo sapiens, UniProt P49841); assay: GSK-3β Kinase-Glo enzyme inhibition assay, with enzyme kinetics
[1] = biological target: human recombinant β-secretase (BACE1) (Homo sapiens, UniProt P56817); assay: BACE1 FRET enzyme inhibition assay, with enzyme kinetics; conditions: IC50 BACE1, mean ± SD, triplicate
Chain of human recombinant β-secretase (BACE1) (P56817 46-501): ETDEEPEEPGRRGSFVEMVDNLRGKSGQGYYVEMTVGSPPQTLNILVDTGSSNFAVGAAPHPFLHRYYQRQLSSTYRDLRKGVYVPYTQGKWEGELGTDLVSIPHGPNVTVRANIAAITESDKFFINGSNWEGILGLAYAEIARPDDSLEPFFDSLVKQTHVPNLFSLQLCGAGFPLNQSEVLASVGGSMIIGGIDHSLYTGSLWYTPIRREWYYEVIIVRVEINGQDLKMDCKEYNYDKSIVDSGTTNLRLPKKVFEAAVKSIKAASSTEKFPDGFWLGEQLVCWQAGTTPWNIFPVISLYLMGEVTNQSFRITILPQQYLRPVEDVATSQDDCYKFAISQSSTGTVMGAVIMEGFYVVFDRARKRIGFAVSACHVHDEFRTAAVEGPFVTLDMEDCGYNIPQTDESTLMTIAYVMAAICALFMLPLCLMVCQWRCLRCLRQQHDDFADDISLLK

Chain of hGSK-3β (P49841 whole entry): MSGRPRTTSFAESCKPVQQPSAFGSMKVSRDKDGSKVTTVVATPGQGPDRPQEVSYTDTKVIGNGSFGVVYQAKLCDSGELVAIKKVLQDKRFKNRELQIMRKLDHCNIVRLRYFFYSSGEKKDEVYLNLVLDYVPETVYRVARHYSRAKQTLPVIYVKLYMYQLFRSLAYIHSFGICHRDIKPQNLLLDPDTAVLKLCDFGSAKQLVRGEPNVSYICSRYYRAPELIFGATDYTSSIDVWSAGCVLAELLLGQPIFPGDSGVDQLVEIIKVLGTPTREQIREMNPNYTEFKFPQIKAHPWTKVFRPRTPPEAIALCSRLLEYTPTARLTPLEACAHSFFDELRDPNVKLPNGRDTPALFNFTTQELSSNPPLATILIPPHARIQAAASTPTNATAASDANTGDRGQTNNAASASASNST
Chain of horse serum BChE (P81908 whole entry): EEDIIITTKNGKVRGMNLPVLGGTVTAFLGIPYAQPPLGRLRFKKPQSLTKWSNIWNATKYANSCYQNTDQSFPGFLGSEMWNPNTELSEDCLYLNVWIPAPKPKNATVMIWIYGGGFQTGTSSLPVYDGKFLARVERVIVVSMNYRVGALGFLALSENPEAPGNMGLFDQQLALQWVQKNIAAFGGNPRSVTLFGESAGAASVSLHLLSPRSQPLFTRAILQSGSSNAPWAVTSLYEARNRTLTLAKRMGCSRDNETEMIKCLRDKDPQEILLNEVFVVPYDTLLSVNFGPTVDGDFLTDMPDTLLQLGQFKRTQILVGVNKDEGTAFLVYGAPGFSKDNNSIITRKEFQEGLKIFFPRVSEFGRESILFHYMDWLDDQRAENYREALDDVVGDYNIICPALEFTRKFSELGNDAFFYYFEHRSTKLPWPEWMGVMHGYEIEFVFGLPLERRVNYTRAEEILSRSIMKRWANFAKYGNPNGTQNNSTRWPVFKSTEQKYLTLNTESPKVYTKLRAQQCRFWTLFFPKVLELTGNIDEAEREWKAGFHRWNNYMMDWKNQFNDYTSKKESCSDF
Chain of electric eel AChE (O42275 24-633): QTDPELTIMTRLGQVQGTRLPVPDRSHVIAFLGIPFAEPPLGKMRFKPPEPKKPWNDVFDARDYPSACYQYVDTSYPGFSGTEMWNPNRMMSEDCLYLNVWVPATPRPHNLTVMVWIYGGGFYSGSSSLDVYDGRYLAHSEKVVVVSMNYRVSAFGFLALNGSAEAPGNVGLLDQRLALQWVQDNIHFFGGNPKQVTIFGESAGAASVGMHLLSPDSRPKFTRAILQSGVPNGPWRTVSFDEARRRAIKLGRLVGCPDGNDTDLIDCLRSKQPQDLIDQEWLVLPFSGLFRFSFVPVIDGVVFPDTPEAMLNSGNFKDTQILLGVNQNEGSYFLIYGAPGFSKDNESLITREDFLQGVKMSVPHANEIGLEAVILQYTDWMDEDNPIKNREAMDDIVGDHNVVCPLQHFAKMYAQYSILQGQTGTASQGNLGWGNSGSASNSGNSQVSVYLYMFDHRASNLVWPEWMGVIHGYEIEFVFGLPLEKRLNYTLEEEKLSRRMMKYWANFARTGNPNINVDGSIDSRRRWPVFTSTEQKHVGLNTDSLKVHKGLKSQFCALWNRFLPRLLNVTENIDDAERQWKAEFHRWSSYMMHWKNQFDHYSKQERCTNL

Compound: CC(C)=CCC/C(C)=C/Cc1c(O)ccc2cc(-c3cc(O)cc(O)c3CC=C(C)C)oc12 [mulberrofuran D (1), mulberrofuran D]
- IC50 (electric eel AChE): 23 ± 1.15 µM
- IC50 (horse serum BChE): 6.12 ± 1.41 µM
- IC50 (hGSK-3β): 8.12 ± 0.66 µM

Compound: C[C@@]12C=C(c3c(O)cc(-c4cc5ccc(O)cc5o4)cc3O)C[C@@H](C1)c1ccc(O)cc1O2 [mulberrofuran H (3), mulberrofuran H]
- IC50 (electric eel AChE): > 200 µM
- IC50 (horse serum BChE): 64.5 ± 3.1 µM
- IC50 [1]: 1.04 ± 0.78 µM
- IC50 (hGSK-3β): 4.41 ± 0.3 µM
